Assays:
[1] = molecular target: T1, L-fucokinase/GDP-fucose pyrophosphorylase (FKP); BfFKP (Bacteroides fragilis, UniProt Q58T34); assay: NADH coupled assay of fucokinase activity; assay type: biochemical; details: co-substrate ATP; C-terminal fucokinase domain
T1 construct: full-length wild type, overexpressed and purified; about 105 kDa protomer, tetramer; model covers residues 71-398 and 467-949

[2] = molecular target: the molecule itself; assay: SEC; purified FKP on size exclusion chromatography; eluted at the volume of the 440 kDa molecular weight marker

Molecule: C[C@@H]1OC(O)[C@@H](O)[C@H](O)[C@@H]1O (stereo partly drawn) [L-fucose, 6-deoxy-L-galactose]
- NADH coupled assay of fucokinase activity [1]: We applied the NADH coupled assay and the pyrophosphate assay to characterize the fucokinase activity

B1: L-fucokinase/GDP-fucose pyrophosphorylase (FKP) from Bacteroides fragilis 9343, full-length wild type (enzyme, UniProt Q58T34 1-949, looked up)
chain: MQKLLSLPSNLVQSFHELERVNRTDWFCTSDPVGKKLGSGGGTSWLLEECYNEYSDGATFGEWLEKEKRILLHAGGQSRRLPGYAPSGKILTPVPVFRWERGQHLGQNLLSLQLPLYEKIMSLAPDKLHTLIASGDVYIRSEKPLQSIPEADVVCYGLWVDPSLATHHGVFASDRKHPEQLDFMLQKPSLAELESLSKTHLFLMDIGIWLLSDRAVEILMKRSHKESSEELKYYDLYSDFGLALGTHPRIEDEEVNTLSVAILPLPGGEFYHYGTSKELISSTLSVQNKVYDQRRIMHRKVKPNPAMFVQNAVVRIPLCAENADLWIENSHIGPKWKIASRHIITGVPENDWSLAVPAGVCVDVVPMGDKGFVARPYGLDDVFKGDLRDSKTTLTGIPFGEWMSKRGLSYTDLKGRTDDLQAVSVFPMVNSVEELGLVLRWMLSEPELEEGKNIWLRSEHFSADEISAGANLKRLYAQREEFRKGNWKALAVNHEKSVFYQLDLADAAEDFVRLGLDMPELLPEDALQMSRIHNRMLRARILKLDGKDYRPEEQAAFDLLRDGLLDGISNRKSTPKLDVYSDQIVWGRSPVRIDMAGGWTDTPPYSLYSGGNVVNLAIELNGQPPLQVYVKPCKDFHIVLRSIDMGAMEIVSTFDELQDYKKIGSPFSIPKAALSLAGFAPAFSAVSYASLEEQLKDFGAGIEVTLLAAIPAGSGLGTSSILASTVLGAINDFCGLAWDKNEICQRTLVLEQLLTTGGGWQDQYGGVLQGVKLLQTEAGFAQSPLVRWLPDHLFTHPEYKDCHLLYYTGITRTAKGILAEIVSSMFLNSSLHLNLLSEMKAHALDMNEAIQRGSFVEFGRLVGKTWEQNKALDSGTNPPAVEAIIDLIKDYTLGYKLPGAGGGGYLYMVAKDPQAAVRIRKILTENAPNPRARFVEMTLSDKGFQVSRS
- stoichiometry N [2]: 4

— publication PMC6468028 (Protein & Cell, 2018)
